How the values were obtained:
Format in all cases: cell-based
[1] = tested on: HIV-1 NL 4.3; experiment: HIV-1 replication in quiescent CD4 T cells (p24 Ag ELISA); conditions: for anti-HIV activity in quiescent cells (in words) / HIV quiescent cells (percentage p24 compared to the untreated control): SPPs 10 μM; for anti-HIV activity in quiescent cells (in words): compared with HU 100 μM, HU+ddI or untreated control; for Antiviral activity in quiescent cells: class symbol, Table 6; for HIV quiescent cells (percentage p24 compared to the untreated control): quiescent CD4 T cells, day 10, HU 100 μM, HU 100 μM+ddI 2 μM
Experimental: Unstimulated (quiescent/resting, day 0 to 5) human CD4 T-lymphocytes, obtained by magnetic bead separation from healthy, normal donors, were infected with HIV-1 NL 4.3. After five days in culture, cells were stimulated with PHA (5 μg/ml) to induce proliferation, and then, at day 7, IL-2 (20 U/ml) was added (stimulated, day 6 to 10). All available compounds were tested at a concentration of 10 μM. HU 100 μM and HU 100 μM+ddI 2 μM were also employed as comparators and the negative control was left untreated. At day 10, cells and supernatants were harvested and HIV-1 p24 Ag was measured by ELISA. HIV replication was expressed as percentage p24 compared to the untreated control.

[2] = tested on: HIV-1 NL 4.3; experiment: HIV-1 replication in activated T cells (PBMC, p24 Ag ELISA); conditions: for anti-HIV activity in activated T cells (in words): SPPs 10 μM, compared with HU 100 μM, HU+ddI or untreated control; for HIV activated cells (% p24 compared to not treated control): activated T cells, 7 days, SPPs and Imatinib 10 μM, HU 100 μM, ddI 2 μM; for Antiviral activity in activated cells: class symbol, Table 6
Experimental: The experimental setup described below allows us to detect direct antiviral activity of a compound.
Human PBMC, obtained from healthy, normal donors, were stimulated for two days with PHA 5 μg/ml. Then cells were infected with HIV-1 NL 4.3, IL-2 was added (20 U/ml), cells were plated (10^5 cells per well in 200 μl) and drug treatment started. […] The control was left untreated. After 7 days of incubation at 37° C. supernatants were harvested and HIV-1 p24 Ag was measured by ELISA.

[3] = tested on: primary human CD4 T-lymphocytes; experiment: Cell hyperproliferation in primary T cells (CFSE staining, mitotic index); conditions: for mitotic index %: % of not treated control (100%), day 10, HU 100 μM; for mitotic index % / anti-proliferative activity (in words): SPPs 10 μM, Imatinib 10 μM; for anti-proliferative activity (in words): compared with HU 100 μM, HU+ddI or untreated control; for Anti-proliferative capacity: class symbol, Table 6
Experimental: We built up an experimental model using primary T cells to study the activity of the compounds on induced hyperproliferation of cells, which is a characteristic of both chronic viral diseases and cancer including HIV and leukemia.
(§1) Unstimulated (quiescent/resting, day 0 to 5) primary human CD4 T-lymphocytes were obtained by magnetic bead separation from healthy, normal donors. After five days in culture, cells were activated with PHA (5 μg/ml) to induce hyperproliferation then, at day 7, IL-2 (20 U/ml) was added (stimulated, day 6 to 10). All available compounds were tested at a concentration of 10 μM. […] At day 10, cells were harvested. Proliferation of T cells, cultured as described above, was studied by staining the cells with carboxyfluorescein diacetate-succinimidyl ester (CFSE) at day 0 (immediately after infection). For data analysis, the mitotic index (M) was used, calculating the sum of mitotic events at each proliferation cycle. To extract a relative number, M was normalized to the total number of cells acquired using the equation M=Σ[(Xn(T)−Xn(T)/2^n)], that gives the number of mitotic events from the experimentally obtained values of the proportion of T cells under each division peak n (Xn) and the total T cells (T). To study the effect of the compounds on apoptosis T cells were cultured as described above and at day 10 cells were stained with Annexin V and 7-AAD, in order to determine the percentage of total apoptotic events.

[4] = tested on: primary human CD4 T-lymphocytes; experiment: Apoptosis in primary CD4 T cells (Annexin V and 7-AAD staining); conditions: SPPs 10 μM; for apoptotic effect (in words): compared with HU 100 μM, HU+ddI or untreated control; for apoptosis %: total apoptotic events compared to untreated control, day 10, Imatinib 10 μM, HU 100 μM, ddI 2 μM
Experimental: as §1
We determined the capacity of the compounds to affect the percentages of apoptotic events after 10 days of treatment in primary CD4 T cells.

| Compound | anti-HIV activity in quiescent cells (in words) [1] | Antiviral activity in quiescent cells [1] | HIV quiescent cells (percentage p24 compared to the untreated control) [1] [%] | anti-HIV activity in activated T cells (in words) [2] | HIV activated cells (% p24 compared to not treated control) [2] [%] | Antiviral activity in activated cells [2] | mitotic index % [3] [%] | anti-proliferative activity (in words) [3] | Anti-proliferative capacity [3] | apoptotic effect (in words) [4] | apoptosis % [4] [%] |
| --- | --- | --- | --- | --- | --- | --- | --- | --- | --- | --- | --- |
| CCCCNc1ncnc2c1cnn2CC(Cl)c1ccccc1 (stereo not shown) [VS1-008] | good activity | +++ (excellent (+++, greater than 70% activity)) | 11.2 ± 7.7 | good activity | 11.8 ± 5.6 | +++ (excellent (+++, greater than 70% activity)) | 8.1 ± 1.8 | good activity against proliferation (even better than HU though 10 times less concentrated) | +++ (excellent (+++, greater than 70% activity)) | did not induce apoptosis | 115.8 ± 39.4 |
| BrC(Cn1ncc2c(N3CCCCCC3)ncnc21)c1ccccc1 (stereo not shown) [VS1-018] | – | – | 11.5 ± 3.2 | poor activity | 93.6 ± 28.3 | – | 42.4 ± 21.8 | poor activity | – | proapoptotic | 176.0 ± 22.5 |
| CCSc1nc(Nc2cccc(Cl)c2)c2cnn(CC(Cl)c3ccccc3)c2n1 (stereo not shown) [VS1-027] | good anti-HIV activity | +++ (excellent (+++, greater than 70% activity)) | 2.7 ± 1.6 | good anti-HIV activity | 12.0 ± 9.5 | +++ (excellent (+++, greater than 70% activity)) | 2.4 ± 1.5 | good anti-proliferative capacity (superior to 100 μM HU) | +++ (excellent (+++, greater than 70% activity)) | no more apoptotic than HU | 90.1 ± 33.8 |
| CSc1nc(NCc2ccc(Cl)cc2)c2cnn(CC(Cl)c3ccccc3)c2n1 (stereo not shown) [VS1-035] | – | – | 24.0 ± 20.0 | – | 49.5 ± 8.1 | – | 33.8 ± 11.0 | good anti-proliferative activity, similar to HU | – | proapoptotic activity | 161.0 ± 13.2 |
| CCCCNc1ncnc2c1cnn2C=Cc1ccccc1 [VS1-021] | – | – | 115.4 ± 40.4 | poor activity | 97.2 ± 30.3 | – | 86.2 ± 13.7 | poor activity | – | – | 108.0 ± 21.7 |
| C(=Cn1ncc2c(N3CCCCCC3)ncnc21)c1ccccc1 [VS1-001] | very effective inhibitor of HIV replication | – | 19.6 ± 20.3 | very effective inhibitor of HIV replication | 12.5 ± 2.3 | – | 52.0 ± 2.0 | less effective than HU | – | did not induce apoptosis | 80.3 ± 19.2 |
| C(=Cn1ncc2c(N3CCOCC3)ncnc21)c1ccccc1 [VS1-009] | – | – | 71.8 ± 42.9 | very little activity | 44.8 ± 14.9 | – | 88.4 ± 19.8 | very little activity | – | – | 114.2 ± 21.3 |
| CSc1nc(N2CCOCC2)c2cnn(CC(Cl)c3ccccc3)c2n1 (stereo not shown) [VS1-030] | – | – | 17.4 ± 10.8 | – | 34.5 ± 13.4 | – | 15.5 ± 4.8 | greater than 100 μM HU and 10 μM Imatinib | – | proapoptotic | 174.4 ± 16.4 |
| CSc1nc(NCCc2cccc(Cl)c2)c2cnn(CC(Cl)c3ccccc3)c2n1 (stereo not shown) [VS1-028] | good anti-HIV activity | +++ (excellent (+++, greater than 70% activity)) | 4.4 ± 2.9 | good anti-HIV activity | 25.7 ± 19.8 | +++ (excellent (+++, greater than 70% activity)) | 15.2 ± 15.7 | good anti-proliferative capacity (superior to 100 μM HU) | +++ (excellent (+++, greater than 70% activity)) | no more apoptotic than HU | 108.6 ± 30.8 |
| CCSc1nc(NCc2ccccc2)c2cnn(CC(Cl)c3ccccc3)c2n1 (stereo not shown) [VS1-020] | effective against HIV | – | 9.2 ± 3.7 | effective against HIV | 26.3 ± 6.1 | – | 21.9 ± 13.0 | as anti-proliferative or even better than HU | – | proapoptotic | 174.7 ± 25.9 |
| C(=Cn1ncc2c(NC3CCCCC3)ncnc21)c1ccccc1 [VS1-012] | – | – | 10.9 ± 5.0 | better anti-HIV activity than HU | 18.6 ± 2.9 | – | 68.8 ± 10.7 | – | – | – | 46.3 ± 9.1 |
| C(=Cn1ncc2c(NCCc3ccccc3)ncnc21)c1ccccc1 [VS1-014] | – | – | 74.3 ± 22.8 | – | 92.4 ± 24.3 | – | 76.9 ± 2.7 | – | – | – | 135.2 ± 19.3 |
| CSc1nc(N2CCCCCC2)c2cnn(CC(Cl)c3ccccc3)c2n1 (stereo not shown) [VS1-034] | – | – | 22.2 ± 7.0 | – | 65.0 ± 12.0 | – | 25.9 ± 12.9 | comparable or even greater than HU | – | – | 115.1 ± 34.5 |
